From patent US7371758B2, “Antimalarial pyrimidine derivatives and methods of making and using them” (National Science & Technology Development Agency, priority 2003, dated 2008)
One block for each compound: values may come before it.

How the values were obtained:
[1] = molecular target: T1, PfDHFR S108N (Plasmodium falciparum, UniProt A7UD81, S108N); assay: PfDHFR enzyme inhibition constants (Ki), single mutant S108N; format: biochemical
T1 construct: made in house; host or cells: E. coli BL21 (DE3)pLysS
T1 sequence (A7UD81 whole entry S108N): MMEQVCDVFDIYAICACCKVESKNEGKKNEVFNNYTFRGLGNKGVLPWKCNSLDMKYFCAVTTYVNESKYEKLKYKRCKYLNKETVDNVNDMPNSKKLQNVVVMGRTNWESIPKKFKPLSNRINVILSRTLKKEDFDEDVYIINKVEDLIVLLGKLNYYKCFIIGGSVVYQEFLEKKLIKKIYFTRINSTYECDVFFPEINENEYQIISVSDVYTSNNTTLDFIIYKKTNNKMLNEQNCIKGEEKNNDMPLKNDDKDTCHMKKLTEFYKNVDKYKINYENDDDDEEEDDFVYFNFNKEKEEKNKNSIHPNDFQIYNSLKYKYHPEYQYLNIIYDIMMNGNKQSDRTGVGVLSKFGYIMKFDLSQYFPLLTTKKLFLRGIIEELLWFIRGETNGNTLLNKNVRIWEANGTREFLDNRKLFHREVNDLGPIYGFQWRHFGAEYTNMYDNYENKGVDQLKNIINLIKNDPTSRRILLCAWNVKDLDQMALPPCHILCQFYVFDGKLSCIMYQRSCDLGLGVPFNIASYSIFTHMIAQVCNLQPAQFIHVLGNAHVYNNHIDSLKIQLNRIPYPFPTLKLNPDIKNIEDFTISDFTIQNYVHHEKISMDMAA

[2] = molecular target: T2, PfDHFR N51I + C59R + S108N + I164L (Plasmodium falciparum, UniProt A7UD81, C59R/I164L/N51I/S108N); assay: PfDHFR enzyme inhibition constants (Ki), quadruple mutant N51I + C59R + S108N + I164L; format: biochemical
T2 construct: made in house; host or cells: E. coli BL21 (DE3)pLysS
T2 sequence (A7UD81 whole entry N51I/C59R/S108N/I164L): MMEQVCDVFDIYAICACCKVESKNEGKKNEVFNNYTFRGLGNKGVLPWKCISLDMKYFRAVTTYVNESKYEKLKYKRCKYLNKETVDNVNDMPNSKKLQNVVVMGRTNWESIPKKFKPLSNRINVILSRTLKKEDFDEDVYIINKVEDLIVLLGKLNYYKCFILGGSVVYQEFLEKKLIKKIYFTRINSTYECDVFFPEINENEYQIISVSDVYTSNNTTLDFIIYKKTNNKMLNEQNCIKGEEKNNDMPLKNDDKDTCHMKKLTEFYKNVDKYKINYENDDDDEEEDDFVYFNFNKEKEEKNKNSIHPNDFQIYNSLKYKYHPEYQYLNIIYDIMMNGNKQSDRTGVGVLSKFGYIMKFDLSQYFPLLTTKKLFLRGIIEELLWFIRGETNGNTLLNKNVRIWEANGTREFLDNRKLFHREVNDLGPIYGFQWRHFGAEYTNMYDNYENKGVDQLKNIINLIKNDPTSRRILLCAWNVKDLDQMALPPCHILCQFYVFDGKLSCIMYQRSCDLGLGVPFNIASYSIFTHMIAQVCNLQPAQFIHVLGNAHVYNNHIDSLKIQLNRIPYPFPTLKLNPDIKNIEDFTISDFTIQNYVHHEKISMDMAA

[3] = tested on: Staphylococcus aureus; assay: Antibacterial activity, bacterial growth inhibition, S. aureus; format: cell-based; details: 20 hours incubation, 600 nm
Protocol: (§1) The IC50-values was determined from the sigmoidal curve obtained by plotting the percentages of bacterial growth against drug concentrations. These compounds have selectivity against malaria parasites with no or less effect on bacteria. The antibacterial activities to S. aureus, and E. coli are as summerized in Table 4.

[4] = molecular target: T3, PfDHFR C59R + S108N (Plasmodium falciparum, UniProt A7UD81, C59R/S108N); assay: PfDHFR enzyme inhibition constants (Ki), double mutant C59R + S108N; format: biochemical
T3 construct: made in house; host or cells: E. coli BL21 (DE3)pLysS
T3 sequence (A7UD81 whole entry C59R/S108N): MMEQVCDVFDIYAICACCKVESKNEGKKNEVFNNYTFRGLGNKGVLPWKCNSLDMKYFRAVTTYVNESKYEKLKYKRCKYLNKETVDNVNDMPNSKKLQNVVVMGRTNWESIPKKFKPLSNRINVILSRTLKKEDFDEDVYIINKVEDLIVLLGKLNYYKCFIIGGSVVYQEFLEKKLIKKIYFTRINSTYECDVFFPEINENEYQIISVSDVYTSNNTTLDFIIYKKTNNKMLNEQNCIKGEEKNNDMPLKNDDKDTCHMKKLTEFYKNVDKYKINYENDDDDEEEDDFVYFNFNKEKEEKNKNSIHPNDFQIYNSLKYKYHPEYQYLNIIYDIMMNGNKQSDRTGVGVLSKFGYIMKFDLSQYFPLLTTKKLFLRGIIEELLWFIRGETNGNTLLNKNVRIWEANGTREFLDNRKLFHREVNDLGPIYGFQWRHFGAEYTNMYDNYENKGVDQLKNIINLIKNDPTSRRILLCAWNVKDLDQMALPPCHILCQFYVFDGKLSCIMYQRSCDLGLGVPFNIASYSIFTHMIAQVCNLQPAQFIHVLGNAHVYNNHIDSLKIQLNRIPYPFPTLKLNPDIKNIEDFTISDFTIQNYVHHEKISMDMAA

[5] = Cytotoxicity to mammalian cells, Vero; format: cell-based; details: African green monkey, Vero cells (African green monkey kidney epithelial cells)
[6] = Cytotoxicity to mammalian cells, KB; format: cell-based; details: human, KB cells (human epidermoid carcinoma)
Protocol: (§2) Cytotoxicity tests of the invented compounds against African green monkey kidney fibroblast (Vero cells), Human epidermoid carcinoma (KB) cells, Human breast cancer (BC) cells were performed according to the protocol described by Skehan et al (1990). These compounds have selectivity against malaria parasites with no or less effect on mammalian cell lines.

[7] = molecular target: dihydrofolate reductase of Plasmodium falciparum, wild type (Plasmodium falciparum, UniProt A7UD81); assay: PfDHFR enzyme inhibition constants (Ki), wild type; format: biochemical; details: 25° C., 340 nm
Sequence of dihydrofolate reductase of Plasmodium falciparum, wild type (A7UD81 entry or part of it): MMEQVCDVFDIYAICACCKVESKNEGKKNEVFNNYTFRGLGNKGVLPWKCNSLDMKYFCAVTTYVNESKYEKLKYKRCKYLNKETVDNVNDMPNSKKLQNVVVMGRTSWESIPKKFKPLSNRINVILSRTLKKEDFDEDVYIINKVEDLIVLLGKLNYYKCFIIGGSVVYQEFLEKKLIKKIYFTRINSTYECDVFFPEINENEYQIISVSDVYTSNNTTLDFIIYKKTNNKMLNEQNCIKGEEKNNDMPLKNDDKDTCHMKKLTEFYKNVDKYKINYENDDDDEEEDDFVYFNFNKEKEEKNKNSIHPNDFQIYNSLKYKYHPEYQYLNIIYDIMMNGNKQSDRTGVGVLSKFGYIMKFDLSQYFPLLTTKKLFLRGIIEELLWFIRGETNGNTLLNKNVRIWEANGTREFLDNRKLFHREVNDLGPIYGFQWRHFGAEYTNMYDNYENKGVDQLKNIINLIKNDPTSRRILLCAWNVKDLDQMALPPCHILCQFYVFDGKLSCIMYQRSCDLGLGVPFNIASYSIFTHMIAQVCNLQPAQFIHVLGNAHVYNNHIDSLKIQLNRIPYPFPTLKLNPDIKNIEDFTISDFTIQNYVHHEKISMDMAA

[8] = tested on: E. coli; assay: Antibacterial activity, bacterial growth inhibition, E. coli; format: cell-based; details: Escherichia coli, 20 hours incubation, 600 nm
Protocol: as §1

[9] = Cytotoxicity to mammalian cells, BC; format: cell-based; details: human, BC cells (human breast cancer)
Protocol: as §2

[10] = molecular target: PfDHFR C59R + S108N + I164L (Plasmodium falciparum, UniProt A7UD81, C59R/I164L/S108N); assay: biochemical
Sequence of PfDHFR C59R + S108N + I164L (A7UD81 whole entry C59R/S108N/I164L): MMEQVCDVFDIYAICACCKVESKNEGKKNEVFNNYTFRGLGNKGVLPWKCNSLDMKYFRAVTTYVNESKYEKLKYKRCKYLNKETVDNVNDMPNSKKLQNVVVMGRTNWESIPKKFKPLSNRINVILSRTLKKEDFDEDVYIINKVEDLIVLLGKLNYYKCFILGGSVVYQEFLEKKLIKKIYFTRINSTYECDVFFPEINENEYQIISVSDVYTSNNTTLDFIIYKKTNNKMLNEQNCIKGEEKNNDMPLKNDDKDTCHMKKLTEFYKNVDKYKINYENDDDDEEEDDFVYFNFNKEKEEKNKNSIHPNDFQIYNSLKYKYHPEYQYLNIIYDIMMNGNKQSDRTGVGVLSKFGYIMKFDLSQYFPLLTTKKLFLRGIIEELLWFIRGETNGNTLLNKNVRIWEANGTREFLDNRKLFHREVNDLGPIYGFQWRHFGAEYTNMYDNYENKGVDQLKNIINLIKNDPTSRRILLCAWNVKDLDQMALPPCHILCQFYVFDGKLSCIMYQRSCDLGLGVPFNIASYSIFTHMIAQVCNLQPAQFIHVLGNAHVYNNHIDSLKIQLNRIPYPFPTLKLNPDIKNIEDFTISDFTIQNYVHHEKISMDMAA

[11] = molecular target: PfDHFR N51I + C59R + S108N (Plasmodium falciparum, UniProt A7UD81, C59R/N51I/S108N); assay: biochemical
Sequence of PfDHFR N51I + C59R + S108N (A7UD81 whole entry N51I/C59R/S108N): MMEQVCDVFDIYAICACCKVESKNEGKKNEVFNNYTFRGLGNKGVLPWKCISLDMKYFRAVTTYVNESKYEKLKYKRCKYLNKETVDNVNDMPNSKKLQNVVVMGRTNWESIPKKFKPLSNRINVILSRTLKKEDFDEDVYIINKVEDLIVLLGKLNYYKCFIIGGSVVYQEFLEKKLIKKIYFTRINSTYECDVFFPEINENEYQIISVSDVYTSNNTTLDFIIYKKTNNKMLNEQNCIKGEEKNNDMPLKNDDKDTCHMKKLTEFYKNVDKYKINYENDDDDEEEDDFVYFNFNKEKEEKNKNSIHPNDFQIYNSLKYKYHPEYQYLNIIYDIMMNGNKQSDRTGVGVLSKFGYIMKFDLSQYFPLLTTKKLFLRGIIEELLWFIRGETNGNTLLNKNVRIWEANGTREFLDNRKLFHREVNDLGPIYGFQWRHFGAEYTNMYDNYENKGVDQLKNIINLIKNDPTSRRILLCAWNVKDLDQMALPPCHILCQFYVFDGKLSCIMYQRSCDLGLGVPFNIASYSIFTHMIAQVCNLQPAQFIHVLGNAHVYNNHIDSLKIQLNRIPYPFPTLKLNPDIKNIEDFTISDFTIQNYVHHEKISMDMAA

[12] = tested on: Plasmodium falciparum TM4/8.2 (wild type); assay: In vitro antimalarial activity, [3H]-hypoxanthine incorporation, TM4/8.2; format: cell-based; details: P. falciparum TM4/8.2, wild type
Protocol: P. falciparum strains were used in this study. P. falciparum strains were maintained continuously in human erythrocytes at 37° C. under 3% CO2 in RPMI 1640 culture media supplemented with 25 mM HEPES, pH 7.4, 0.2% NaHCO3, 40 μg/mL gentamicin and 10% human serum.
In vitro antimalarial activity was determined by using [^3H]-hypoxanthine incorporation method. The drugs were initially dissolved in DMSO and diluted with the culture media. Aliquots (25 μL) of the drug of different concentrations were dispensed in 96-well plates and 200 μL of 1.5% cell suspension of parasitized erythrocytes containing 1-2% parasitemia were added. […] The mixtures were incubated in a 3% CO2 incubator at 37° C. After 24 h of incubation, 25 μL (0.25 μCi) of [^3H]-hypoxanthine were added to each well. The parasite cultures were further incubated under the same condition for 18-24 h. DNA of parasites was harvested onto glass filter paper. The filters were air-dried and 20 μL liquid scintillation fluid was added. The radioactivity on the filters was then measured using a microplate scintillation counter. […] Examples of the invented compounds in this series with active antimalarial activity against wild type and in particular against parasites carrying single, double, triple, and quadruple mutant enzymes are as summarized in Table 2.

Structure (SMILES): COC(=O)CCCc1nc(N)nc(N)c1-c1cccc(Cl)c1 [Example 6, 2,4-diamino-5-(3-chlorophenyl)-6-(3-methoxycarbonylpropyl)pyrimidine]
Ki [1]: 1.7 ± 0.1 nM
Ki [2]: 2.7 ± 1.2 nM
IC50 [3]: > 50000 nM
Ki [4]: 2.8 ± 0.2 nM
IC50 [5]: 20000 nM
IC50 [6]: 9300 nM
Ki [7]: 0.5 nM
IC50 [8]: > 50000 nM
IC50 [9]: 22800 nM
Ki [10]: 1.8 ± 0.4 nM
Ki [11]: 0.8 ± 0.2 nM
IC50 [12]: 790 ± 100 nM

Structure (SMILES): CCc1nc(N)nc(N)c1-c1ccc(Cl)cc1 [Pyr, pyrimethamine, reference compound]
IC50 [6]: 109000 nM
IC50 [9]: 40000 nM
IC50 [12]: 80 ± 10 nM

Structure (SMILES): COc1ccc(CCCc2nc(N)nc(N)c2-c2cccc(Cl)c2)cc1 [Example 5, 2,4-diamino-5-(3-chlorophenyl)-6-[3-(4-methoxyphenyl)propyl]pyrimidine]
Ki [1]: 4 ± 0.2 nM
Ki [2]: 2 ± 0.4 nM
IC50 [3]: 38000 nM
Ki [4]: 6 ± 0.6 nM
IC50 [5]: 3000 nM
IC50 [6]: 15000 nM
Ki [7]: 2.2 ± 0.6 nM
IC50 [8]: > 50000 nM
IC50 [9]: 3000 nM
Ki [10]: 2.9 ± 0.3 nM
Ki [11]: 1.3 ± 0.1 nM
IC50 [12]: 410 ± 50 nM

Structure (SMILES): COC(=O)CCCc1nc(N)nc(N)c1-c1ccccc1 [Example 3, 2,4-diamino-6-(3-methoxycarbonylpropyl)-5-phenylpyrimidine]
Ki [1]: 1.8 ± 0.2 nM
Ki [2]: 24 ± 2 nM
IC50 [3]: > 50000 nM
Ki [4]: 5.5 ± 0.5 nM
IC50 [5]: 20000 nM
IC50 [6]: 71000 nM
Ki [7]: 0.6 nM
IC50 [8]: > 50000 nM
IC50 [9]: 500000 nM
Ki [10]: 15 ± 3 nM
Ki [11]: 3.3 ± 0.6 nM
IC50 [12]: 390 ± 60 nM

Structure (SMILES): Nc1nc(N)c(-c2ccccc2)c(CCCc2ccccc2)n1 [Example 2, 2,4-diamino-5-phenyl-6-(3-phenylpropyl)pyrimidine]
Ki [1]: 0.9 ± 0.2 nM
Ki [2]: 4.7 ± 0.9 nM
IC50 [3]: > 50000 nM
Ki [4]: 2.4 ± 0.1 nM
IC50 [5]: > 50000 nM
IC50 [6]: 150000 nM
Ki [7]: 0.5 nM
IC50 [8]: > 50000 nM
IC50 [9]: 250000 nM
Ki [10]: 1.9 ± 0.1 nM
Ki [11]: 1.1 ± 0.1 nM
IC50 [12]: 210 ± 60 nM

Structure (SMILES): Nc1nc(N)c(-c2cccc(Cl)c2)c(CCOCCCOc2ccccc2)n1 [Example 7, 2,4-diamino-5-(3-chlorophenyl)-6-[2-(3-phenoxypropyloxy)ethyl]pyrimidine]
Ki [1]: 1.8 ± 0.3 nM
Ki [2]: 1.7 ± 0.2 nM
IC50 [3]: > 50000 nM
Ki [4]: 1.9 ± 0.4 nM
IC50 [5]: 15000 nM
IC50 [6]: 6400 nM
Ki [7]: 0.4 ± 0.2 nM
IC50 [8]: > 50000 nM
IC50 [9]: 4900 nM
Ki [10]: 1.3 ± 0.4 nM
Ki [11]: 0.7 ± 0.1 nM
IC50 [12]: 350 ± 80 nM

IC50 [3]: 6000 nM
IC50 [8]: 2300 nM
Structure (SMILES): COc1cc(Cc2cnc(N)nc2N)cc(OC)c1OC [Trimethoprim, reference compound]

Structure (SMILES): Nc1nc(N)c(-c2cccc(Cl)c2)c(CCCc2ccccc2)n1 [Example 4, 2,4-diamino-5-(3-chlorophenyl)-6-(3-phenylpropyl)pyrimidine]
Ki [1]: 3 ± 0.6 nM
Ki [2]: 2 ± 0.8 nM
IC50 [3]: > 50000 nM
Ki [4]: 4.2 ± 0.2 nM
IC50 [5]: 2100 nM
IC50 [6]: 1600 nM
Ki [7]: 1.2 ± 0.2 nM
IC50 [8]: > 50000 nM
IC50 [9]: 1600 nM
Ki [10]: 2.2 ± 0.3 nM
Ki [11]: 2 ± 0.2 nM
IC50 [12]: 670 ± 60 nM

Structure (SMILES): CCCCCCc1nc(N)nc(N)c1-c1ccccc1 [Example 1, 2,4-diamino-6-(n-hexyl)-5-phenylpyrimidine]
Ki [1]: 1.2 ± 0.3 nM
Ki [2]: 1.4 ± 0.5 nM
IC50 [3]: > 10000 nM
Ki [4]: 0.7 ± 0.3 nM
IC50 [5]: 55000 nM
IC50 [6]: 113000 nM
Ki [7]: 0.3 ± 0.1 nM
IC50 [8]: > 10000 nM
IC50 [9]: 268000 nM
Ki [10]: 0.7 ± 0.2 nM
Ki [11]: 0.4 ± 0.02 nM
IC50 [12]: 60 ± 20 nM
